These results are taken from patent US20230265151A1, “GIP/GLP1 CO-AGONIST COMPOUNDS” (priority 2020, published 2023).

Like-named read-outs stand apart in the source and are kept apart here.

Holding throughout (type): cell-based
Test [1] addresses T1, hGCGR (Homo sapiens, UniProt P47871).
T1 construct: expressed in transfected cells
Briefly: Functional cAMP formation (HTRF) in HEK-293 clonal cells expressing hGCGR, 0.1% bovine casein, without or with 1.0% human serum albumin. The following applies: geometric mean. An outline of the steps: (§1)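 Cells were stimulated with peptide for 30 min at 37° C, then lysed in buffer carrying cAMP-d2 and anti-cAMP Eu3+-cryptate for a competitive HTRF read after at least 60 min at room temperature. The 665/620 nm ratio was converted to nM cAMP against a standard curve.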

In test [2] the target is T2, hGIPR (Homo sapiens, UniProt P48546).
T2 construct: expressed in transfected cells
T2 sequence (P48546 22-466): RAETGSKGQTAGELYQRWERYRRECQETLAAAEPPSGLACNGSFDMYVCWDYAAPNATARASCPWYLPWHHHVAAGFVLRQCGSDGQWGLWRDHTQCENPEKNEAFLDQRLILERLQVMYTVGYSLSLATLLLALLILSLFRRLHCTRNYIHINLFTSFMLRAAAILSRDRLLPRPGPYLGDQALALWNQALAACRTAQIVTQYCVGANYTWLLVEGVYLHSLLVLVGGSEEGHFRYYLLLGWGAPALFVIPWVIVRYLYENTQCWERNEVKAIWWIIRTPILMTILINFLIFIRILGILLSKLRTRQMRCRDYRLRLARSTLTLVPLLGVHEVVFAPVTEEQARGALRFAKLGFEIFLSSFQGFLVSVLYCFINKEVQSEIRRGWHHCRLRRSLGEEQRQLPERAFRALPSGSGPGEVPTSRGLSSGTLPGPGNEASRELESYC
Nature of the test: Functional cAMP formation (HTRF) in HEK-293 clonal cells expressing hGIPR, 0.1% bovine casein, without or with 1.0% human serum albumin. The following applies: for EC50: geometric mean. An outline of the steps:
as §1
In general terms: cAMP levels reflect the balance of adenylyl cyclase and phosphodiesterase activity.

The target of test [3] is hGLP-1R (Homo sapiens, UniProt P43220). Nature of the test: Functional cAMP formation (HTRF) in HEK-293 clonal cells expressing hGLP-1R, 0.1% bovine casein, without or with 1.0% human serum albumin. Set-up: expressed in transfected cells. The following applies: for Emax: percent of maximal response to GLP-1(7-36)NH2; for EC50: geometric mean. An outline of the steps:
as §1

[4] abbreviates: hGCGR EC50, nM (SEM, n), 0.1% bovine casein and 1.0% human serum albumin, 37° C.
[5] abbreviates: hGCGR EC50, nM (SEM, n), cAMP, 37° C., 0.1% bovine casein (no human serum albumin).
The mark [6] stands for this setting: HEK293, read-out: hGIPR Emax, % ± SEM, 0.1% bovine casein and 1.0% human serum albumin, 37° C., percent of maximal response to GIP(1-42)NH2.
The mark [7] stands for this setting: HEK293, read-out: hGIPR Emax, % ± SEM, cAMP, 37° C., 0.1% bovine casein, percent of maximal response to GIP(1-42)NH2, arithmetic mean.
The mark [8] stands for this setting: hGIPR EC50, nM (SEM, n), cAMP, 37° C., 0.1% bovine casein (no human serum albumin).
The mark [9] stands for this setting: HEK293, read-out: hGLP-1R Emax, % ± SEM, 0.1% bovine casein and 1.0% human serum albumin, 37° C.
[10] abbreviates: 0.1% bovine casein and 1.0% human serum albumin, 37° C., read-out: hGCGR EC50, nM (SEM, n).
Where [11] appears, read: cAMP, incubated at 37° C., 0.1% bovine casein (no human serum albumin), read-out: hGCGR EC50, nM (SEM, n).
The mark [12] stands for this setting: HEK293, 0.1% bovine casein and 1.0% human serum albumin, 37° C., percent of maximal response to GIP(1-42)NH2, read-out: hGIPR Emax, % ± SEM.
The mark [13] stands for this setting: HEK293, percent of maximal response to GIP(1-42)NH2, 37° C., 0.1% bovine casein, arithmetic mean, read-out: hGIPR Emax, % ± SEM.
Setting [14] is: 0.1% bovine casein and 1.0% human serum albumin, 37° C., read-out: hGLP-1R EC50, nM (SEM, n).

hGLP-1R, sequence (P43220 24-463): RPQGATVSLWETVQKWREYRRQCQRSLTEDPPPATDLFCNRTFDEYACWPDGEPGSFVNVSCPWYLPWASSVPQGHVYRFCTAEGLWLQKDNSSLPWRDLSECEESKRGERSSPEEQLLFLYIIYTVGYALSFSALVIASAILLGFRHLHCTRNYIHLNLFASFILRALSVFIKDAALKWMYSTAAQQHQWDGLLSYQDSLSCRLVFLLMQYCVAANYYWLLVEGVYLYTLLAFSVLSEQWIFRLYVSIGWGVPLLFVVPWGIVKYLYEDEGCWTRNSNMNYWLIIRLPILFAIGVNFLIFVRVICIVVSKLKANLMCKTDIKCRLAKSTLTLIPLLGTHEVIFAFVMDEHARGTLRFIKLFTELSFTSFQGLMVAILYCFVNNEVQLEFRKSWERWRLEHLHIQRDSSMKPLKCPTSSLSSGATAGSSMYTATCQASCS
T1 sequence (P47871 26-477): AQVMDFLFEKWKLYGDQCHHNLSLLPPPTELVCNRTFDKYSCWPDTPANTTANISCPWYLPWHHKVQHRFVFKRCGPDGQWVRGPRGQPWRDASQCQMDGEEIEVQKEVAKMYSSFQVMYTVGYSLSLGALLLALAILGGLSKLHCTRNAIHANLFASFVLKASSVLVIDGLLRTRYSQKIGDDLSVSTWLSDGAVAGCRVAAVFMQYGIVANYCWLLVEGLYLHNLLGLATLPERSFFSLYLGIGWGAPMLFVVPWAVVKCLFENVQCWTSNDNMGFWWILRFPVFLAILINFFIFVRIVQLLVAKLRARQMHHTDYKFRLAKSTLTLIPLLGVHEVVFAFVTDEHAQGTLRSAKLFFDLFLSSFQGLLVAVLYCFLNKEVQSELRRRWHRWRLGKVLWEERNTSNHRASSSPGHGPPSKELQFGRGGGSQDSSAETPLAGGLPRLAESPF

What is called EC50 is the concentration giving half of the maximal effect. By Emax is commonly meant the greatest response seen or fitted, relative to the assay's reference. On to `CC[C@H](C)[C@H](NC(=O)[C@H](CCCN)NC(=O)[C@H](CC(=O)O)NC(=O)[C@H](CC(C)C)NC(=O)[C@](C)(CC(C)C)NC(=O)[C@@H](NC(=O)[C@H](CO)NC(=O)[C@H](Cc1ccncc1)NC(=O)[C@H](CC(=O)O)NC(=O)[C@H](CO)NC(=O)[C@@H](NC(=O)[C@](C)(Cc1ccccc1F)NC(=O)[C@@H](NC(=O)CNC(=O)[C@H](CCC(=O)O)NC(=O)C(C)(C)NC(=O)[C@@H](N)Cc1ccc(O)cc1)[C@@H](C)O)[C@@H](C)O)[C@@H](C)CC)C(=O)N[C@@H](C)C(=O)N[C@@H](CCC(N)=O)C(=O)NC(C)(C)C(=O)N[C@@H](CCCCNC(=O)COCCOCCNC(=O)COCCOCCNC(=O)CC[C@H](NC(=O)CCCCCCCCCCOc1ccc(C(=O)O)cc1)C(=O)O)C(=O)N[C@@H](Cc1ccccc1)C(=O)N[C@H](C(=O)N[C@H](CCC(=O)O)C(=O)N[C@@](C)(Cc1ccc(O)cc1)C(=O)N[C@@H](CC(C)C)C(=O)N[C@H](C(=O)N[C@@H](CCC(=O)O)C(=O)NCC(=O)NCC(=O)N1CCC[C@H]1C(=O)N[C@@H](CO)C(=O)N[C@@H](CO)C(=O)NCC(=O)N[C@@H](C)C(=O)N1CCC[C@H]1C(=O)N1CCC[C@H]1C(=O)N1CCC[C@H]1C(=O)N[C@@H](CO)C(=O)N[C@@H](CCCCNC(=O)COCCOCCNC(=O)COCCOCCNC(=O)CC[C@H](NC(=O)CCCCCCCCCCOc1ccc(C(=O)O)cc1)C(=O)O)C(N)=O)[C@@H](C)CC)[C@@H](C)CC` [Example 288], for which the EC50 is greater than 9950 nM in test [1] (setting [4]), greater than 9950 nM in test [1] (setting [5]) and 0.0219 nM in test [2] (setting [8]). Moreover, the maximum response (Emax) in test [2] (setting [6]) came out at 85.2%; in test [2] (setting [7]), 110%; in test [3] (setting [9]), 123%.

On to `CC[C@H](C)[C@H](NC(=O)[C@H](CC(C)C)NC(=O)[C@](C)(Cc1ccc(O)cc1)NC(=O)[C@@H](CCC(=O)O)NC(=O)[C@@H](NC(=O)[C@H](Cc1ccccc1)NC(=O)[C@H](CCC(=O)O)NC(=O)C(C)(C)NC(=O)[C@H](CCC(N)=O)NC(=O)[C@H](C)NC(=O)[C@H](CCCCNC(=O)COCCOCCNC(=O)COCCOCCNC(=O)CCCCCCCCCCCCC(=O)O)NC(=O)[C@H](CCCN)NC(=O)[C@H](CC(=O)O)NC(=O)[C@H](CC(C)C)NC(=O)[C@](C)(CC(C)C)NC(=O)[C@@H](NC(=O)[C@H](CO)NC(=O)[C@H](Cc1ccncc1)NC(=O)[C@H](CC(=O)O)NC(=O)[C@H](CO)NC(=O)[C@@H](NC(=O)[C@](C)(Cc1ccccc1F)NC(=O)[C@@H](NC(=O)CNC(=O)[C@H](CCC(=O)O)NC(=O)C(C)(C)NC(=O)[C@@H](N)Cc1ccc(O)cc1)[C@@H](C)O)[C@@H](C)O)[C@@H](C)CC)[C@@H](C)CC)C(=O)N[C@@H](CCCCNC(=O)COCCOCCNC(=O)COCCOCCNC(=O)CCCCCCCCCCCCC(=O)O)C(=O)NCC(=O)NCC(=O)N1CCC[C@H]1C(=O)N[C@@H](CO)C(=O)N[C@@H](CO)C(=O)NCC(=O)N[C@@H](C)C(=O)N1CCC[C@H]1C(=O)N1CCC[C@H]1C(=O)N1CCC[C@H]1C(=O)N[C@@H](CO)C(N)=O` [Example 210], for which the EC50 is greater than 9950 nM in test [1] (setting [10]); greater than 9950 nM in test [1] (setting [11]); 0.44 nM in test [2] (0.1% bovine casein and 1.0% human serum albumin, 37° C., read-out: hGIPR EC50, nM (SEM, n)); 8.86 nM in test [3] (setting [14]). The Emax in test [2] (setting [12]) came out at 68.1%; in test [2] (setting [13]) it was 92.1%.

Consider `CC[C@H](C)[C@H](NC(=O)[C@H](Cc1ccccc1)NC(=O)[C@H](CCC(=O)O)NC(=O)C(C)(C)NC(=O)[C@H](CCC(N)=O)NC(=O)[C@H](C)NC(=O)[C@H](CCCCNC(=O)COCCOCCNC(=O)COCCOCCNC(=O)CC[C@H](NC(=O)CCCCCCCCCCCCC(=O)O)C(=O)O)NC(=O)[C@H](CCCN)NC(=O)[C@H](CC(=O)O)NC(=O)[C@H](CC(C)C)NC(=O)[C@](C)(CC(C)C)NC(=O)[C@@H](NC(=O)[C@H](CO)NC(=O)[C@H](Cc1ccncc1)NC(=O)[C@H](CC(=O)O)NC(=O)[C@H](CO)NC(=O)[C@@H](NC(=O)[C@](C)(Cc1ccccc1F)NC(=O)[C@@H](NC(=O)CNC(=O)[C@H](CCC(=O)O)NC(=O)C(C)(C)NC(=O)[C@@H](N)Cc1ccc(O)cc1)[C@@H](C)O)[C@@H](C)O)[C@@H](C)CC)C(=O)NCC(=O)N[C@@](C)(Cc1ccc(O)cc1)C(=O)N[C@@H](CC(C)C)C(=O)N[C@H](C(=O)N[C@@H](CCC(=O)O)C(=O)NCC(=O)NCC(=O)N[C@@H](CCCCNC(=O)COCCOCCNC(=O)COCCOCCNC(=O)CC[C@H](NC(=O)CCCCCCCCCCCCC(=O)O)C(=O)O)C(=O)N[C@@H](CO)C(=O)N[C@@H](CO)C(=O)NCC(=O)N[C@@H](C)C(=O)N1CCC[C@H]1C(=O)N1CCC[C@H]1C(=O)N1CCC[C@H]1C(=O)N[C@@H](CO)C(N)=O)[C@@H](C)CC` [Example 104], for which the EC50 in test [1] (setting [10]) was greater than 9950 nM; in test [1] (setting [11]) it was greater than 9950 nM; in test [2] (cAMP, incubated at 37° C., 0.1% bovine casein (no human serum albumin), read-out: hGIPR EC50, nM (SEM, n)) it was 0.0361 nM; in test [3] (setting [14]), 12.3 nM. The Emax in test [2] (setting [12]) was found to be 95.9%; in test [2] (setting [13]), 94.9%; in test [3] (HEK293, 0.1% bovine casein and 1.0% human serum albumin, 37° C., read-out: hGLP-1R Emax, % ± SEM) it was 95.8%.

`CC[C@H](C)[C@H](NC(=O)[C@H](CCCN)NC(=O)[C@H](CC(=O)O)NC(=O)[C@H](CC(C)C)NC(=O)[C@](C)(CC(C)C)NC(=O)[C@@H](NC(=O)C(C)(C)NC(=O)[C@H](Cc1ccc(O)cc1)NC(=O)[C@H](CC(=O)O)NC(=O)[C@H](CO)NC(=O)[C@@H](NC(=O)[C@](C)(Cc1ccccc1F)NC(=O)[C@@H](NC(=O)CNC(=O)[C@H](CCC(=O)O)NC(=O)C(C)(C)NC(=O)[C@@H](N)Cc1ccc(O)cc1)[C@@H](C)O)[C@@H](C)O)[C@@H](C)CC)C(=O)N[C@@H](C)C(=O)N[C@@H](CCC(N)=O)C(=O)NC(C)(C)C(=O)N[C@@H](CCC(=O)O)C(=O)N[C@@H](Cc1ccccc1)C(=O)N[C@H](C(=O)N[C@@H](CCCCNC(=O)COCCOCCNC(=O)COCCOCCNC(=O)CC[C@H](NC(=O)CCCCCCCCCCOc1ccc(C(=O)O)cc1)C(=O)O)C(=O)N[C@@](C)(Cc1ccc(O)cc1)C(=O)N[C@@H](CC(C)C)C(=O)N[C@H](C(=O)N[C@@H](CCCCNC(=O)COCCOCCNC(=O)COCCOCCNC(=O)CC[C@H](NC(=O)CCCCCCCCCCOc1ccc(C(=O)O)cc1)C(=O)O)C(=O)NCC(=O)NCC(=O)N1CCC[C@H]1C(=O)N[C@@H](CO)C(=O)N[C@@H](CO)C(=O)NCC(=O)N[C@@H](C)C(=O)N1CCC[C@H]1C(=O)N1CCC[C@H]1C(=O)N1CCC[C@H]1C(=O)N[C@@H](CO)C(N)=O)[C@@H](C)CC)[C@@H](C)CC` [Example 312]: the EC50 is greater than 9950 nM in test [1] (setting [4]); greater than 9950 nM in test [1] (setting [5]); 0.00757 nM in test [2] (setting [8]); 0.663 nM in test [3] (hGLP-1R EC50, nM (SEM, n), cAMP, 37° C., 0.1% bovine casein (no human serum albumin)). Moreover, the figures for the Emax in test [2] (setting [6]), in test [2] (setting [7]) and in test [3] (setting [9]) were 89.5%, 105% and 112%, respectively.
